Earlier results on 1 compound are cited in patent US20260306464A1, “LINAPRAZAN GLURATE FOR TREATING GASTROESOPHAGEAL REFLUX DISEASE (GERD)” (Cinclus Pharma Holding AB (publ), priority 2023, published 2026).

For this data set the following is noted: background statement; cited from earlier work.

With `Cc1cccc(C)c1CNc1cc(C(=O)NCCOC(=O)CCCC(=O)O)cn2c(C)c(C)nc12` [linaprazan glurate, 5-{2-[({8-[(2,6-dimethylbenzyl)amino]-2,3-dimethylimidazo[1,2-a]pyridine-6-yl}carbonyl)-amino]ethoxy}-5-oxopentanoic acid], the plasma half-life result was “approximately 10 hours”.
